Laboratory results published in US10463644B2, “Uses of sesquiterpene lactone compounds and their derivatives in drugs preparation” (ACCENDATECH, priority 2013, dated 2019).

Key:
Type in all cases: in vivo
[1] = test system: TNF-α secreted by synoviocyte; assay: Content of TNF-α in culture supernatant of synoviocyte of RA model rats given test compound; settings: rat RA model, dose 30 mg/kg.2d, normal control 0.38 ± 0.027, NaCl 0.74 ± 0.098
Description: (§1) Take Compound 1-50 prepared as per the method according to the present invention and employ the method provided in Reference to prepare model, group drugs and prepare culture supernatant of rat synoviocyte.
(§2) Employ the method provided in Reference to investigate the effects of the test compounds on the synoviocyte to secrete TNF-α and PGE2. Employ the method provided in Reference to investigate the effects of the test compounds on the synoviocyte to secrete IL-1β.
(§3) The experimental data of the test compound 1-50 at a dose of 30 mg/kg.2d as well as the normal control and NaCl group are as follows: […]

[2] = test system: IL-1β secreted by synoviocyte; assay: Content of IL-1β in culture supernatant of synoviocyte of RA model rats given test compound; settings: rat RA model, dose 30 mg/kg.2d, normal control 0.16 ± 0.034, NaCl 0.49 ± 0.136
Description: as §1, §2, §3

[3] = test system: PGE2 secreted by synoviocyte; assay: Content of PGE2 in culture supernatant of synoviocyte of RA model rats given test compound; settings: rat RA model, dose 30 mg/kg.2d, normal control 8.34 ± 1.29, NaCl 32.44 ± 10.32
Description: as §1, §2, §3

SMILES	Content of TNF-α in culture supernatant of synoviocyte (x ± s) [1]	Content of IL-1β in culture supernatant of synoviocyte (x ± s) [2]	Content of PGE2 in culture supernatant of synoviocyte (x ± s) [3]	Content of TNF-α in culture supernatant of synoviocyte (x ± s) ([1]; 30 mg/kg)	Content of IL-1β in culture supernatant of synoviocyte (x ± s) ([2]; 30 mg/kg)	Content of PGE2 in culture supernatant of synoviocyte (x ± s) ([3]; 30 mg/kg)
C=C1C(=O)OC2C1CCC(C)=C1CCC(C)(OC(=O)C(Cl)Cl)C12 (stereo not drawn) [Compound 10]	0.54 ± 0.055 ng/mL	0.42 ± 0.069 ng/mL	25.67 ± 7.12 ng/mL			
CC1CCN(C[C@@H]2C(=O)O[C@@H]3C4C(CCC45CC5)C4(CC[C@@H]23)CC4)CC1 (stereo partly drawn) [Compound 36]	0.66 ± 0.045 ng/mL	0.29 ± 0.064 ng/mL	25.64 ± 2.14 ng/mL			
O=C1O[C@H]2[C@@H](CCC3(CC3)[C@@H]3CCC4(CC4)[C@H]23)[C@@H]1CN1CCCC1 [Compound 39]	0.52 ± 0.056 ng/mL	0.34 ± 0.095 ng/mL	28.35 ± 2.15 ng/mL			
CC(O)c1cn(C[C@@H]2C(=O)O[C@H]3[C@H]2CCC2(CC2)[C@@H]2CCC4(CC4)[C@H]32)nn1 (stereo partly drawn) [Compound 45]	0.49 ± 0.056 ng/mL	0.38 ± 0.039 ng/mL	23.26 ± 3.49 ng/mL			
CN(CCO)C[C@@H]1C(=O)O[C@H]2[C@H]1CCC1(CC1)[C@@H]1CCC3(CC3)[C@H]21 [Compound 40]	0.48 ± 0.078 ng/mL	0.31 ± 0.061 ng/mL	25.34 ± 3.57 ng/mL			
CN1CCN(CC2C(=O)O[C@@H]3[C@@H]4[C@@H](CCC45CC5)C4(CC[C@@H]23)CC4)CC1 (stereo partly drawn) [Compound 37]	0.59 ± 0.035 ng/mL	0.31 ± 0.037 ng/mL	27.94 ± 2.69 ng/mL			
COC(=O)c1cn(C[C@@H]2C(=O)O[C@H]3[C@H]2CCC2(CC2)[C@@H]2CCC4(CC4)[C@H]32)nn1 [Compound 44]	0.54 ± 0.071 ng/mL	0.35 ± 0.069 ng/mL	22.14 ± 2.87 ng/mL			
C=C1C(=O)OC2C1CCC(C)=C1CCC(C)(OC(=O)CCC)C12 (stereo not drawn) [Compound 4]	0.56 ± 0.064 ng/mL	0.42 ± 0.064 ng/mL	24.49 ± 2.67 ng/mL			
C=C1C(=O)OC2C1CCC(C)=C1CCC(C)(OC(=O)C=Cc3ccccc3)C12 (stereo not drawn) [Compound 17]	0.66 ± 0.077 ng/mL	0.37 ± 0.065 ng/mL	28.95 ± 3.24 ng/mL			
C=C1C(=O)OC2C1CCC(C)=C1CCC(C)(OC(=O)CCl)C12 (stereo not drawn) [Compound 9]	0.61 ± 0.065 ng/mL	0.45 ± 0.064 ng/mL	27.92 ± 2.67 ng/mL			
C=C1C(=O)OC2C1CCC(C)=C1CCC(C)(OC(=O)CCCCBr)C12 (stereo not drawn) [Compound 12]	0.66 ± 0.043 ng/mL	0.38 ± 0.069 ng/mL	24.59 ± 2.35 ng/mL			
C=CCCC(=O)OC1(C)CCC2=C(C)CCC3C(=C)C(=O)OC3C21 (stereo not drawn) [Compound 18]	0.64 ± 0.072 ng/mL	0.39 ± 0.029 ng/mL	20.62 ± 2.47 ng/mL			
CC1=C2CC[C@@](C)(O)[C@@H]2[C@H]2OC(=O)[C@@H](CN(C)C)[C@@H]2CC1 [Compound 22]				0.61 ± 0.082 ng/mL	0.34 ± 0.038 ng/mL	24.69 ± 4.19 ng/mL
CCCCN(C)C[C@@H]1C(=O)O[C@H]2[C@H]1CCC1(CC1)[C@@H]1CCC3(CC3)[C@H]21 [Compound 41]	0.45 ± 0.056 ng/mL	0.41 ± 0.054 ng/mL	26.63 ± 1.59 ng/mL			
C=C1C(=O)OC2C1CCC(C)=C1CCC(C)(OC(=O)C(C)C)C12 (stereo not drawn) [Compound 6]	0.61 ± 0.072 ng/mL	0.36 ± 0.054 ng/mL	26.75 ± 1.69 ng/mL			
O=C1O[C@H]2[C@@H](CCC3(CC3)[C@@H]3CCC4(CC4)[C@H]23)[C@@H]1CSCc1ccccc1 [Compound 32]	0.64 ± 0.044 ng/mL	0.37 ± 0.047 ng/mL	22.75 ± 4.25 ng/mL			
O=C1O[C@H]2[C@@H](CCC3(CC3)[C@@H]3CCC4(CC4)[C@H]23)[C@@H]1CSc1ccccc1 [Compound 31]	0.62 ± 0.056 ng/mL	0.39 ± 0.051 ng/mL	24.41 ± 1.65 ng/mL			
C=C1C(=O)OC2C1CCC(C)=C1CCC(C)(OC(=O)CCc3ccccc3)C12 (stereo not drawn) [Compound 20]	0.58 ± 0.045 ng/mL	0.34 ± 0.056 ng/mL	27.38 ± 1.39 ng/mL			
O=C1O[C@H]2[C@@H](CCC3(CC3)[C@@H]3CCC4(CC4)[C@H]23)[C@@H]1CNCCO [Compound 34]	0.54 ± 0.067 ng/mL	0.35 ± 0.059 ng/mL	24.61 ± 3.24 ng/mL			
C=C1C(=O)OC2C1CCC(C)=C1CCC(C)(OC(=O)CC(C)C)C12 (stereo not drawn) [Compound 7]	0.56 ± 0.044 ng/mL	0.39 ± 0.058 ng/mL	22.82 ± 2.67 ng/mL			
C=C1C(=O)OC2C1CCC(C)=C1CCC(C)(OC(=O)C=CC)C12 (stereo not drawn) [Compound 15]	0.54 ± 0.045 ng/mL	0.41 ± 0.051 ng/mL	24.39 ± 2.38 ng/mL			
C=C1C(=O)OC2C1CCC(C)=C1CCC(C)(OC(=O)CC)C12 (stereo not drawn) [Compound 3]	0.55 ± 0.042 ng/mL	0.36 ± 0.039 ng/mL	26.96 ± 1.59 ng/mL			
O=C1O[C@H]2[C@@H](CCC3(CC3)[C@@H]3CCC4(CC4)[C@H]23)[C@@H]1Cn1cc(CCCCO)nn1 [Compound 42]	0.58 ± 0.055 ng/mL	0.36 ± 0.059 ng/mL	22.58 ± 4.21 ng/mL			
COC[C@@H]1C(=O)O[C@H]2[C@H]1CCC1(CC1)[C@@H]1CCC3(CC3)[C@H]21 [Compound 30]	0.65 ± 0.057 ng/mL	0.38 ± 0.049 ng/mL	25.37 ± 4.21 ng/mL			
C#CCCCC(=O)O[C@]1(C)CCC2=C(C)CC[C@H]3C(=C)C(=O)O[C@@H]3[C@H]21 [Compound 19]	0.62 ± 0.056 ng/mL	0.42 ± 0.091 ng/mL	26.45 ± 5.21 ng/mL			
O=C1O[C@H]2[C@@H](CCC3(CC3)[C@@H]3CCC4(CC4)[C@H]23)[C@@H]1CN1CCOCC1 [Compound 38]	0.67 ± 0.045 ng/mL	0.35 ± 0.062 ng/mL	19.67 ± 3.14 ng/mL			
O=C1O[C@H]2[C@@H](CCC3(CC3)[C@@H]3CCC4(CC4)[C@H]23)[C@@H]1CNCc1ccccc1 [Compound 33]	0.63 ± 0.054 ng/mL	0.41 ± 0.052 ng/mL	26.64 ± 2.67 ng/mL			
O=C1O[C@H]2[C@@H](CCC3(CC3)[C@@H]3CCC4(CC4)[C@H]23)[C@@H]1Cn1cc(-c2ccccc2)nn1 [Compound 43]	0.55 ± 0.045 ng/mL	0.43 ± 0.062 ng/mL	24.64 ± 3.95 ng/mL			
C=C1C(=O)OC2C1CCC(C)=C1CCC(C)(OC(=O)C=C(C)C)C12 (stereo not drawn) [Compound 16]	0.57 ± 0.073 ng/mL	0.34 ± 0.039 ng/mL	27.61 ± 4.21 ng/mL			
